Data on two compounds can be found in patent US9284325B2, “Spectinamides as anti-tuberculosis agents” (UNIVERSITY OF TENNESSEE RESEARCH FOUNDATION, priority 2009, dated 2016).

In brackets after ≈: the same amount, converted by molar mass. Like-named read-outs stand apart in the source and are kept apart here.

Data set [1] is described as follows: Cytotoxicity, MTT cell proliferation assay. As to conditions: African green monkey, Vero epithelial cells (ATCC CCL-81).
In data set [2] the test system is Vero epithelial cells. Briefly: Cytotoxicity, MTT cell proliferation assay. Conditions: Vero IC50 / M. tuberculosis MIC.
The subject of data set [3] is Klebsiella pneumoniae ATCC 33495. The data set can be described thus: MIC determination by microbroth dilution. It is filed as cell-based. As to conditions: ATCC33495.
Data set [4] deals with E. coli K12 ΔtolC. Briefly: microbe, parasite or virus in culture. The format is cell-based. Conditions: Escherichia coli, read-out: MIC E. coli K12 ΔtolC.
The test system of data set [5] is E. faecalis ATCC 33186. Briefly: MIC determination by microbroth dilution. The format is cell-based, Enterococcus faecalis. Conditions: Enterococcus faecalis, ATCC33186.
Data set [6] relates to Borrelia burgdorferi. Conditions: spirochete Borrelia burgdorferi, Criswell et al.; cited from earlier work.
Data set [7] deals with Proteus vulgaris ATCC 33420. Briefly: MIC determination by microbroth dilution. It is filed as cell-based. As to conditions: ATCC33420.
Data set [8] concerns protein synthesis in whole cell M. bovis BCG. It is filed as cell-based.
The test system of data set [9] is Acinetobacter baumannii ATCC 19606. Briefly: MIC determination by microbroth dilution. It is filed as cell-based. As to conditions: ATCC19606.
Data set [10] concerns Strep. pyogenes ATCC 700294. The data set can be described thus: MIC determination by microbroth dilution. The format is cell-based, Streptococcus pyogenes. Conditions: Streptococcus pyogenes, ATCC700294, read-out: MIC S. pyogenes.
For data set [11], the system named is Strep. pneumoniae DAW27 or strain R6. The data set can be described thus: MIC determination by microbroth dilution. The format is cell-based, Streptococcus pneumoniae. As to conditions: Streptococcus pneumoniae; Strep. pneumoniae DAW27 or strain R6 (for 1443-1544); read-out: MIC S. pneumoniae.
The test system of data set [12] is P. aeruginosa PAO1. The data set can be described thus: MIC determination by microbroth dilution. Conditions: Pseudomonas aeruginosa. The format is cell-based, Pseudomonas aeruginosa.
For data set [13], the system named is Proteus mirabilis ATCC 25933. Briefly: MIC determination by microbroth dilution. As to conditions: ATCC25933. It is filed as cell-based.
In data set [14] the test system is E. coli ribosomes. It is filed as biochemical. As to conditions: E. coli S30 transcription/translation assay.
Data set [15] relates to S. aureus 8325 or strain ATCC 29213. Briefly: MIC determination by microbroth dilution. It is filed as cell-based, Staphylococcus aureus. As to conditions: Staphylococcus aureus, ATCC29213; S. aureus 8325 or strain ATCC 29213 (for 1471-1544).
Data set [16] deals with M. tuberculosis H37Rv. The data set can be described thus: MIC determination by microbroth dilution, anti-tuberculosis activity. The format is cell-based, Mycobacterium tuberculosis.
For data set [17], the system named is E. coli K12. Briefly: MIC determination by microbroth dilution. It is filed as cell-based, Escherichia coli. Conditions: Escherichia coli, K12.
Data set [18] has as its system Burkholderia cepacia ATCC 25416. The data set can be described thus: MIC determination by microbroth dilution. Conditions: ATCC25416, read-out: MIC B. cepcia. The format is cell-based.
In data set [19] the test system is Vero epithelial cells. Conditions: African green monkey.
Data set [20] concerns Strenotrophomonas maltophilia ATCC 13637. The data set can be described thus: MIC determination by microbroth dilution. The format is cell-based.
The test system of data set [21] is B. anthracis Sterne 34F2. Briefly: microbe, parasite or virus in culture. It is filed as cell-based, Bacillus anthracis. Conditions: Bacillus anthracis, STERNE34F2, read-out: MIC B. anthracis 34F2.

On to `CC[C@@H](CO)NCCN[C@@H](CC)CO` [Ethambutol], for which the IC50 at 72 h in [1] turned out to be 732 µg/mL (≈ 3580 µM). The “therapeutic index (IC50 divided by the MIC)” value in [2] is given as 913.8.
As for `[H]/N=C(/N)N[C@H]1[C@H](O)[C@@H](O)[C@H](O[C@@H]2O[C@@H](C)[C@](O)(C=O)[C@H]2O[C@@H]2O[C@@H](CO)[C@H](O)[C@@H](O)[C@@H]2NC)[C@@H](N/C(N)=N\[H])[C@@H]1O` [Streptomycin, reference compound], the MIC in data set [3] is more than 200 µg/mL; in data set [4], 1.6 µg/mL (≈ 2.75 µM); in data set [5], 50 µg/mL (≈ 86 µM); in data set [7] it was 1.6 µg/mL (≈ 2.75 µM); in data set [9] it was more than 200 µg/mL; in [10], 25 µg/mL (≈ 43 µM). For the same compound, the MIC was 12.5 µg/mL (≈ 21.5 µM) in data set [11]; 25 µg/mL (≈ 43 µM) in data set [12]; 50 µg/mL (≈ 86 µM) in [13]; 0.4 µg/mL (≈ 0.688 µM) in data set [15]; 0.8 µg/mL (≈ 1.38 µM) in data set [17]; more than 200 µg/mL in data set [18]. Besides, the results for the MIC in [20] and in data set [21] were 3.12 µg/mL (≈ 5.36 µM) and 0.8 µg/mL (≈ 1.38 µM), respectively. Besides, in data set [6], the “frequency at which resistance arises” value is given as ≥ 10^−7. Further, the “inhibition of protein synthesis” value in [8] is listed as “inhibited protein synthesis”. In addition, in data set [14], the “IC50, 50% inhibition of luciferase biosynthesis in S30 assay” value was 0.27 µg/mL. For the same compound, in data set [16], the “Activity (MIC) of 1329 compared to streptomycin” value worked out at 0.2. In addition, inhibition in [1] was half-maximal at 1540 µg/mL (≈ 2640 µM) (IC50 at 72 h). Further, the “therapeutic index (IC50 divided by the MIC)” value in data set [19] is listed as 7680.5.
